These results are taken from patent US9765074B2, “Inhibitors of the renal outer medullary potassium channel” (Merck Sharp & Dohme Corp., priority 2013, dated 2017).

Structures are written as SMILES.

The assay concerns the target T1, hROMK (hKir1.1) (Homo sapiens, UniProt P48048).
T1 construct: expressed in transfected cells
T1 sequence (P48048 1-391): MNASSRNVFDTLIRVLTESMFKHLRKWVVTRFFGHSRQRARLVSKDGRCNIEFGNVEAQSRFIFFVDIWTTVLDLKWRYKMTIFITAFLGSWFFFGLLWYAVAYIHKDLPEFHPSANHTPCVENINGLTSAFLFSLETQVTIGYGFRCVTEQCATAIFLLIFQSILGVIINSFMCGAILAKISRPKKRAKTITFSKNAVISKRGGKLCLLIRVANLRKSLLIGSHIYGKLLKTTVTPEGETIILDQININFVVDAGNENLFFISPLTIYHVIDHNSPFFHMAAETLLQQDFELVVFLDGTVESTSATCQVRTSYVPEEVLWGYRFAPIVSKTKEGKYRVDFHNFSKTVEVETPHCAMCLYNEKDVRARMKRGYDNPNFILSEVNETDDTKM
Kind of assay: Thallium Flux Assay (ROMK channel functional thallium flux, FLIPR-Tetra). The format is cell-based. The settings on record: HEK293 cells stably expressing hROMK (hKir1.1); 30 min compound incubation. In short, it runs like this: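 Thallium flux read by FluxOR fluorescence ([…]) for ~10 min after adding 3 mM Tl+/0.3 mM K+ final. Stable HEK-hKir1.1 cells were dye-loaded 90 min, exposed to compound 30 min at room temperature in ouabain/probenecid buffer; IC50 relative to a 3 μM control inhibitor.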
For orientation: IC50 means the point on the concentration scale where inhibition reaches its midpoint. Lower therefore signals greater potency. The compound `CC1=C(N2C=CC3(CCN(C[C@H](O)c4ccc(-n5cnnn5)nc4)CC3)C2=O)COC1=O` [Example 116, 8-{(2R)-2-hydroxy-2-[6-(1H-tetrazol-1-yl)pyridin-3-yl]ethyl}-2-(4-methyl-5-oxo-2,5-dihydrofuran-3-yl)-1-oxo-2-aza-8-azoniaspiro[4.5]dec-3-ene] returned an IC50 of 30 nM. That is a double-digit nanomolar value.
The value for `COc1cc(-n2cnnn2)ccc1[C@@H](O)CN1CCC2(CC1)CCN(C1=C(C)C(=O)OC1)C2=O` [Example 119, 8-{(2R)-2-hydroxy-2-[2-methoxy-4-(1H-tetrazol-1-yl)phenyl]ethyl}-2-(4-methyl-5-oxo-2,5-dihydrofuran-3-yl)-1-oxo-2-aza-8-azoniaspiro[4.5]decane] was 10 nM.
Turning to `COc1cc(-n2cnnn2)ccc1[C@H](O)CN1CCC2(CC1)CCN(C1=C(C)C(=O)OC1)C2=O` [Example 120, 8-{(2S)-2-hydroxy-2-[2-methoxy-4-(1H-tetrazol-1-yl)phenyl]ethyl}-2-(4-methyl-5-oxo-2,5-dihydrofuran-3-yl)-1-oxo-2-aza-8-azoniaspiro[4.5]decane], the IC50 came to 10 nM.
The value for `CC1=C(N2CCC3(CCN(C[C@H](O)c4nnc(-n5cnnn5)cc4C)CC3)C2=O)COC1=O` [Example 121, 8-{(2S)-2-hydroxy-2-[4-methyl-6-(1H-tetrazol-1-yl)pyridazin-3-yl]ethyl}-2-(4-methyl-5-oxo-2,5-dihydrofuran-3-yl)-1-oxo-2-aza-8-azoniaspiro[4.5]decane] was 20 nM.
For `CC1=C(N2CCC3(CCN(C[C@@H](O)c4nnc(-n5cnnn5)cc4C)CC3)C2=O)COC1=O` [Example 122, 8-{(2R)-2-hydroxy-2-[4-methyl-6-(1H-tetrazol-1-yl)pyridazin-3-yl]ethyl}-2-(4-methyl-5-oxo-2,5-dihydrofuran-3-yl)-1-oxo-2-aza-8-azoniaspiro[4.5]decane], it took 10 nM to reach half-maximal inhibition (IC50).
The value for `CC1=C(N2CCC3(CCN(C[C@@H](O)c4cc(C)c(-n5cnnn5)nn4)CC3)C2=O)COC1=O` [Example 127, 8-{(2R)-2-hydroxy-2-[5-methyl-6-(1H-tetrazol-1-yl)pyridazin-3-yl]ethyl}-2-(4-methyl-5-oxo-2,5-dihydrofuran-3-yl)-1-oxo-2-aza-8-azoniaspiro[4.5]decane] was 20 nM.
The value for `CC1=C(N2CCC3(CCN(C[C@H](O)c4cc(C)c(-n5cnnn5)nn4)CC3)C2=O)COC1=O` [Example 128, 8-{(2S)-2-hydroxy-2-[5-methyl-6-(1H-tetrazol-1-yl)pyridazin-3-yl]ethyl}-2-(4-methyl-5-oxo-2,5-dihydrofuran-3-yl)-1-oxo-2-aza-8-azoniaspiro[4.5]decane] was 80 nM; that for `CC1=C(N2CCC3(CCN(C[C@H](O)c4ccnc(-n5cnnn5)c4)CC3)C2=O)COC1=O` [Example 129, 8-{(2R)-2-hydroxy-2-[2-(1H-tetrazol-1-yl)pyridin-4-yl]ethyl}-2-(4-methyl-5-oxo-2,5-dihydrofuran-3-yl)-1-oxo-2-aza-8-azoniaspiro[4.5]decane] was 140 nM.
In turn, `CC1=C(N2CCC3(CCN(C[C@@H](O)c4ccnc(-n5cnnn5)c4)CC3)C2=O)COC1=O` [Example 130, 8-{(2S)-2-hydroxy-2-[2-(1H-tetrazol-1-yl)pyridin-4-yl]ethyl}-2-(4-methyl-5-oxo-2,5-dihydrofuran-3-yl)-1-oxo-2-aza-8-azoniaspiro[4.5]decane] yielded an IC50 of 160 nM.
The same measure for `CC1=C(N2CCC3(CCN(C[C@H](O)c4cncc(-n5cnnn5)c4)CC3)C2=O)COC1=O` [Example 131, 8-{(2R)-2-hydroxy-2-[5-(1H-tetrazol-1-yl)pyridin-3-yl]ethyl}-2-(4-methyl-5-oxo-2,5-dihydrofuran-3-yl)-1-oxo-2-aza-8-azoniaspiro[4.5]decane]: 680 nM; for `CC1=C(N2CCC3(CCN(C[C@@H](O)c4cncc(-n5cnnn5)c4)CC3)C2=O)COC1=O` [Example 132, 8-{(2S)-2-hydroxy-2-[5-(1H-tetrazol-1-yl)pyridin-3-yl]ethyl}-2-(4-methyl-5-oxo-2,5-dihydrofuran-3-yl)-1-oxo-2-aza-8-azoniaspiro[4.5]decane]: 640 nM; for `CC1=C(N2CCC3(CCN(C[C@@H](O)c4c(F)cc(-n5cnnn5)cc4F)CC3)C2=O)COC1=O` [Example 143, 8-{(2S)-2-[2,6-difluoro-4-(1H-tetrazol-1-yl)phenyl]-2-hydroxyethyl}-2-(4-methyl-5-oxo-2,5-dihydrofuran-3-yl)-1-oxo-2-aza-8-azoniaspiro[4.5]decane]: 190 nM.
The value for `CC1=C(N2C=CC3(CCN(C[C@H](O)c4ccc(-n5cnnn5)nn4)CC3)C2=O)COC1=O` [Example 146, 8-{(2S)-2-hydroxy-2-[6-(1H-tetrazol-1-yl)pyridazin-3-yl]ethyl}-2-(4-methyl-5-oxo-2,5-dihydrofuran-3-yl)-1-oxo-2-aza-8-azoniaspiro[4.5]dec-3-ene] was 50 nM; that for `CC1=C(N2CCC3(CCN(C[C@@H](O)c4ncc(-n5cnnn5)cc4F)CC3)C2=O)COC1=O` [Example 148, 8-{(2R)-2-[3-fluoro-5-(1H-tetrazol-1-yl)pyridin-2-yl]-2-hydroxyethyl}-2-(4-methyl-5-oxo-2,5-dihydrofuran-3-yl)-2,8-diazaspiro[4.5]decan-1-one] was 100 nM; that for `COc1nc(-n2cnnn2)ccc1[C@@H](O)CN1CCC2(CC1)CCN(C1=C(C)C(=O)OC1)C2=O` [Example 149, 8-{(2R)-2-hydroxy-2-[2-methoxy-6-(1H-tetrazol-1-yl)pyridin-3-yl]ethyl}-2-(4-methyl-5-oxo-2,5-dihydrofuran-3-yl)-2,8-diazaspiro[4.5]decan-1-one] was 20 nM.
`COc1nc(-n2cnnn2)ccc1[C@H](O)CN1CCC2(CC1)CCN(C1=C(C)C(=O)OC1)C2=O` [Example 150, 8-{(2S)-2-hydroxy-2-[2-methoxy-6-(1H-tetrazol-1-yl)pyridin-3-yl]ethyl}-2-(4-methyl-5-oxo-2,5-dihydrofuran-3-yl)-2,8-diazaspiro[4.5]decan-1-one] registered an IC50 of 20 nM.
The value for `O=C1C=C(N2C=CC3(CCN(C[C@H](O)c4ccc(-n5cnnn5)nc4)CC3)C2=O)CO1` [Example 151, 8-{(2R)-2-hydroxy-2-[6-(1H-tetrazol-1-yl)pyridin-3-yl]ethyl}-1-oxo-2-(5-oxo-2,5-dihydrofuran-3-yl)-2-aza-8-azoniaspiro[4.5]dec-3-ene] was 30 nM; that for `O=C1C=C(N2C=CC3(CCN(C[C@H](O)c4cnc(-n5cnnn5)cn4)CC3)C2=O)CO1` [Example 152, 8-{(2S)-2-hydroxy-2-[5-(1H-tetrazol-1-yl)pyrazin-2-yl]ethyl}-1-oxo-2-(5-oxo-2,5-dihydrofuran-3-yl)-2-aza-8-azoniaspiro[4.5]dec-3-ene] was 270 nM; that for `CC1=C(N2C=CC3(CCN(C[C@@H](O)c4nnc(-n5cnnn5)cc4C)CC3)C2=O)COC1=O` [Example 153, 8-{(2R)-2-hydroxy-2-[4-methyl-6-(1H-tetrazol-1-yl)pyridazin-3-yl]ethyl}-2-(4-methyl-5-oxo-2,5-dihydrofuran-3-yl)-1-oxo-2-aza-8-azoniaspiro[4.5]dec-3-ene] was 40 nM.
`CC1=C(N2C=CC3(CCN(C[C@H](O)c4nnc(-n5cnnn5)cc4C)CC3)C2=O)COC1=O` [Example 154, 8-{(2S)-2-hydroxy-2-[4-methyl-6-(1H-tetrazol-1-yl)pyridazin-3-yl]ethyl}-2-(4-methyl-5-oxo-2,5-dihydrofuran-3-yl)-1-oxo-2-aza-8-azoniaspiro[4.5]dec-3-ene] returned an IC50 of 30 nM.
The same measure for `O=C1C=C(N2C=CC3(CCN(C[C@@H](O)c4ccc(-n5cnnn5)nc4)CC3)C2=O)CO1` [Example 155, 8-{(2S)-2-hydroxy-2-[6-(1H-tetrazol-1-yl)pyridin-3-yl]ethyl}-1-oxo-2-(5-oxo-2,5-dihydrofuran-3-yl)-2-aza-8-azoniaspiro[4.5]dec-3-ene]: 60 nM; for `CC1=C(N2C=CC3(CCN(C[C@@H](O)c4ccc(-n5cnnn5)nc4)CC3)C2=O)COC1=O` [Example 156, 8-{(2S)-2-hydroxy-2-[6-(1H-tetrazol-1-yl)pyridin-3-yl]ethyl}-2-(4-methyl-5-oxo-2,5-dihydrofuran-3-yl)-1-oxo-2-aza-8-azoniaspiro[4.5]dec-3-ene]: 20 nM.
With `CC1(O)CC2(CCN(C[C@H](O)c3ccc(-n4cnnn4)nc3)CC2)C(=O)N1C1=CC(=O)OC1` (stereo partly drawn) [Example 157, 3-hydroxy-8-{(2R)-2-hydroxy-2-[6-(1H-tetrazol-1-yl)pyridin-3-yl]ethyl}-3-methyl-1-oxo-2-(5-oxo-2,5-dihydrofuran-3-yl)-2-aza-8-azoniaspiro[4.5]decane], the IC50 worked out at 70 nM. Compared with the last compound, the IC50 is about 3.5-fold higher.
Regarding `CC1(O)CC2(CCN(C[C@H](O)c3ccc(-n4cnnn4)nn3)CC2)C(=O)N1C1=CC(=O)OC1` (stereo partly drawn) [Example 158, 3-hydroxy-8-{(2S)-2-hydroxy-2-[6-(1H-tetrazol-1-yl)pyridazin-3-yl]ethyl}-3-methyl-1-oxo-2-(5-oxo-2,5-dihydrofuran-3-yl)-2-aza-8-azoniaspiro[4.5]decane], the IC50 stood at 560 nM. Compared with the last compound, the IC50 is about 8-fold higher.
`CC1=C(N2C=CC3(CCN(C[C@H](O)c4cnc(-n5cnnn5)cn4)CC3)C2=O)COC1=O` [Example 163, 8-{(2S)-2-hydroxy-2-[5-(1H-tetrazol-1-yl)pyrazin-2-yl]ethyl}-2-(4-methyl-5-oxo-2,5-dihydrofuran-3-yl)-1-oxo-2-aza-8-azoniaspiro[4.5]dec-3-ene]: the IC50 was 100 nM. This IC50 is about 5.6-fold lower than that of the compound before.
